Source: patent publication US20220194939A1, “Novel compounds and methods of use treating fructose-related disorders or diseases” (Colorado Research Partners, LLC, priority 2019, published 2022)
Structures can show the parent of a compound that is named as a salt.

biological target: T1, KHK (Homo sapiens, UniProt P50053); test: coupled enzyme assay for KHK activity; assay type: biochemical; settings: purified human recombinant KHK, PK/LDH coupled assay, A340 at 25° C., 0.1 mM ATP, 0.2 mM fructose; isoform (KHK-C or KHK-A) not given
T1 construct: (His)6 tag (N); thrombin cleavage site (N); made in house; host or cells: E. coli BL-21 (DE3)
T1 sequence (P50053 1-298): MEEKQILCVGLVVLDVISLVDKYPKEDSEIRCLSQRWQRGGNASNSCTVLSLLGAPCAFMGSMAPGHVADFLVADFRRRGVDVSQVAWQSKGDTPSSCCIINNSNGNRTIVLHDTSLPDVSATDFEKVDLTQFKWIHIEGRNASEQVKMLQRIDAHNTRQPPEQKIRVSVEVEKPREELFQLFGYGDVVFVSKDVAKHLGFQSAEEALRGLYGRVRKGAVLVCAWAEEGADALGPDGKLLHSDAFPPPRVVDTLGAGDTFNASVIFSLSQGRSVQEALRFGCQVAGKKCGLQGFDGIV
From the text: Specific coupled enzyme screening assays were developed for KHK-C and KHK-A using recombinant proteins. Purified human recombinant KHK-C and KHK-A were produced using by expression in E. coli BL-21 (DE3) using IPTG induction as a His-tagged fusion proteins and purified using Ni-NTA chromatography on His-Trap FF columns. For KHK-C, the coding region from NCBI refseq number NM_006488 was inserted at the Nde I site of pET28a(+) vector, which puts it downstream from an amino-terminal (His)6 tag and a thrombin cleavage site. The same was done for KHK-A using the coding regions from NCBI refseq number NM_000221.2. The protein was expressed in BL-21 (DE3) using IPTG induction and purified using Ni-NTA (GE His Trap FF) column. The protein was washed with 100 column volumes, eluted with 3 column volumes, and dialyzed with HEPES, pH 7.4 buffers containing 20, 500, and 0 mM imidazole, respectively. The dialysate was concentrated by ultrafiltration (10kD MWCO) to >15 mg/mL protein. The protein prep was >95% pure on SDS-PAGE and the molecular weight was confirmed by relative mobility to be 33,730 Da (34,826 expected).
The assay uses the product of the KHK reaction, ADP, to drive a signal measured in real time for measuring the reaction rate. This consists of a 3-step, coupled-enzyme process by which pyruvate kinase (PK), which converts the ADP from the KHK reaction along with phosphoenolpyruvate (PEP) to ATP and pyruvate, respectively. The pyruvate is converted along with NADH to lactate and NAD+ by lactate dehydrogenase (LDH). The disappearance of NADH is measured kinetically by monitoring A340 at 25° C. for 15 minutes. The enzymatic assay was carried out in a total reaction volume of 200 μL containing 33 mM triethanolamine-HCl, pH 7.4, 6 mM MgCl2, 100 mM KCl, 0.1 mM ATP, 1.33 mM PEP, 0.3 mM NADH, 0.2-1.0 U of PK, 0.2-1.0 U of LDH, and 150-240 nM KHK-C or KHK-A (0.01-0.02 U). Fructose was added to initiate the reactions to 0.2 mM, except for the no fructose controls which utilized water. This high-throughput assay was used to identify inhibitors that have an IC50 value<1 μM for KHK-C and to confirm that those values for KHK-A were not more than 2-fold lower.

IC50	Structure (SMILES)
0.7 µM	Cc1cccc(-n2ncc3ccc(NC(=O)[C@H]4NCC[C@@H]4O)cc32)c1 [Compound 18, (2S,3S)-3-hydroxy-N-(1-(m-tolyl)-1H-indazol-6-yl)pyrrolidine-2-carboxamide hydrochloride]
0.52 µM	Cc1cccc(-n2ncc3c(F)cc(NC(=O)[C@H]4NCC[C@@H]4O)cc32)c1 [Compound 19, (2S,3S)-N-(4-fluoro-1-(m-tolyl)-1H-indazol-6-yl)-3-hydroxypyrrolidine-2-carboxamide hydrochloride]
0.72 µM	Cc1cccc(-n2ncc3ccc(NC(=O)[C@@H](N)[C@@H](C)O)cc32)c1 [Compound 20, (2S,3R)-2-amino-3-hydroxy-N-(1-(m-tolyl)-1H-indazol-6-yl)butanamide hydrochloride]
3.6 µM	Cc1cccc(-n2ncc3ccc(NC(=O)[C@@H](N)C(C)(C)O)cc32)c1 [Compound 21, (S)-2-amino-3-hydroxy-3-methyl-N-(1-(m-tolyl)-1H-indazol-6-yl]butanamide hydrochloride]
0.42 µM	Cc1cccc(-n2ncc3ccc(NC(=O)[C@@](C)(N)CO)cc32)c1 [Compound 22, (S)-2-amino-3-hydroxy-2-methyl-N-(1-(m-tolyl)-1H-indazol-6-yl)propanamide hydrochloride]
0.024 µM	Cc1cccc(-n2ncc3c(F)cc(NC(=O)[C@@H](N)CO)cc32)c1 [Compound 23, (S)-2-amino-N-(4-fluoro-1-(m-tolyl)-1H-indazol-6-yl)-3-hydroxypropanamide hydrochloride]
12 µM	CCCCCCCC(=O)OC[C@H](N)C(=O)Nc1ccc2cnn(-c3cccc(C)c3)c2c1 [Compound 24, (S)-2-amino-3-oxo-3-((1-(m-tolyl)-1H-indazol-6-yl)amino)propyl octanoate hydrochloride]
> 1000 µM	Cc1cccc(-n2ncc3ccc(NC(=O)[C@@H](N)COC(=O)c4cccnc4)cc32)c1 [Compound 25, (S)-2-amino-3-oxo-3-((1-(m-tolyl)-1H-indazol-6-yl)amino)propyl nicotinate hydrochloride]
8 µM	CCCCCCCC(=O)OC[C@H](N)C(=O)Nc1cc(F)c2cnn(-c3cccc(C)c3)c2c1 [Compound 26, (S)-2-amino-3-((4-fluoro-1-(m-tolyl)-1H-indazol-6-yl)amino)-3-oxopropyl octanoate hydrochloride]
24 µM	CCOC(=O)N[C@@H](COC(C)=O)C(=O)Nc1ccc2cnn(-c3cccc(C)c3)c2c1 [Compound 30, (S)-2-((ethyloxycarbonyl)amino)-3-oxo-3-((1-(m-tolyl)-1H-indazol-6-yl)amino)propyl acetate]
30 µM	CC(=O)OC[C@H](NC(=O)OC(C)C)C(=O)Nc1ccc2cnn(-c3cccc(C)c3)c2c1 [Compound 31, (S)-2-((isopropoxycarbonyl)amino)-3-oxo-3-((1-(m-tolyl)-1H-indazol-6-yl)amino)propyl acetate]
> 1000 µM	CCOC(=O)N[C@@H](COC(=O)c1cccnc1)C(=O)Nc1ccc2cnn(-c3cccc(C)c3)c2c1 [Compound 32, (S)-2-((ethyloxycarbonyl)amino)-3-oxo-3-((1-(m-tolyl)-1H-indazol-6-yl)amino)propyl nicotinate]
> 1000 µM	Cc1cccc(-n2ncc3ccc(NC(=O)[C@H](COC(=O)c4cccnc4)NC(=O)OC(C)C)cc32)c1 [Compound 33, (S)-2-((isopropoxycarbonyl)amino)-3-oxo-3-((1-(m-tolyl)-1H-indazol-6-yl)amino)propyl nicotinate]
> 1000 µM	CCCCCCCC(=O)OC[C@H](NC(=O)OCC)C(=O)Nc1ccc2cnn(-c3cccc(C)c3)c2c1 [Compound 34, (S)-2-((ethoxycarbonyl)amino)-3-oxo-3-((1-(m-tolyl)-1H-indazol-6-yl)amino)propyl octanoate]
200 µM	CCCCCCCC(=O)OC[C@H](NC(=O)OC(C)C)C(=O)Nc1ccc2cnn(-c3cccc(C)c3)c2c1 [Compound 35, (S)-2-((isoproxycarbonyl)amino)-3-oxo-3-((1-(m-tolyl)-1H-indazol-6-yl)amino)propyl octanoate]
0.4 µM	CCOC(=O)N[C@@H](CO)C(=O)Nc1ccc2cnn(-c3cccc(C)c3)c2c1 [Compound 36, (S)-ethyl (3-hydroxy-1-oxo-1-((1-(m-tolyl)-1H indazol-6-yl)amino)propan-2-yl)carbamate]

The remaining lines, values behind:

Structure (SMILES)	IC50
Cc1cccc(-n2ncc3ccc(NC(=O)[C@H]4CC[C@@H]4N)cc32)c1 (relative stereo) [Compound 9, trans-2-amino-N-(1-(m-tolyl)-1H-indazol-6-yl)cyclobutanecarboxamide hydrochloride]	0.67 µM
Cc1cccc(-n2ncc3ccc(NC(=O)C(N)CO)cc32)c1 (centres unmarked) [Compound 1, 2-amino-3-hydroxy-N-(1-(m-tolyl)-1H-indazol-6-yl)propanamide hydrochloride]	0.12 µM
Cc1cccc(-n2ncc3ccc(NC(=O)[C@H](N)CO)cc32)c1 [Compound 2, (R)-2-amino-3-hydroxy-N-(1-(m-tolyl)-1H-indazol-6-yl)propanamide hydrochloride]	0.12 µM
Cc1cccc(-n2ncc3ccc(NC(=O)[C@@H](N)CO)cc32)c1 [Compound 3, (S)-2-amino-3-hydroxy-N-(1-(m-tolyl)-1H-indazol-6-yl)propanamide hydrochloride]	0.04 µM
Cc1cccc(-n2ncc3ccc(NC(=O)[C@H](CN)CO)cc32)c1 [Compound 4, (R)-3-amino-2-(hydroxymethyl)-N-(1-(m-tolyl)-1H-indazol-6-yl)propanamide hydrochloride]	0.62 µM
Cc1cccc(-n2ncc3ccc(NC(=O)[C@H](C)N)cc32)c1 [Compound 6, (S)-2-amino-N-(1-(m-tolyl)-1H-indazol-6-yl)propanamide hydrochloride]	0.11 µM
Cc1cccc(-n2ncc3ccc(NC(=O)[C@@H](C)N)cc32)c1 [Compound 7, (R)-2-amino-N-(1-(m-tolyl)-1H-indazol-6-yl)propanamide hydrochloride]	0.27 µM
Cc1cccc(-n2ncc3ccc(NC(=O)C(CN)C(C)C)cc32)c1 (centres unmarked) [Compound 8, 2-(aminomethyl)-3-methyl-N-(1-(m-tolyl)-1H-indazol-6-yl)butanamide hydrochloride]	4.9 µM
Cc1cccc(-n2ncc3ccc(NC(=O)[C@@H](N)CCO)cc32)c1 [Compound 10, (S)-2-amino-4-hydroxy-N-(1-(m-tolyl)-1H-indazol-6-yl)butanamide hydrochloride]	0.4 µM
Cc1cccc(-n2ncc3ccc(NC(=O)C[C@H](N)CO)cc32)c1 [Compound 11, (S)-3-amino-4-hydroxy-N-(1-(m-tolyl)-1H-indazol-6-yl)butanamide hydrochloride]	1.2 µM
Cc1cccc(-n2ncc3ccc(NC(=O)[C@H](N)CCO)cc32)c1 [Compound 12, (R)-2-amino-4-hydroxy-N-(1-(m-tolyl)-1H-indazol-6-yl)butanamide hydrochloride]	0.86 µM
Cc1cccc(-n2ncc3ccc(NC(=O)[C@@H](N)CCN)cc32)c1 [Compound 13, (S)-2,4-diamino-N-(1-(m-tolyl)-1H-indazol-6-yl)butanamide]	0.35 µM
Cc1cccc(-n2ncc3ccc(NC(=O)[C@H](N)CN)cc32)c1 [Compound 14, (R)-2,3-diamino-N-(1-(m-tolyl)-1H-indazol-6-yl)propanamide dihydrochloride]	1.1 µM
Cc1cccc(-n2ncc3ccc(NC(=O)[C@@H](N)CN)cc32)c1 [Compound 15, (S)-2,3-diamino-N-(1-(m-tolyl)-1H-indazol-6-yl)propanamide dihydrochloride]	0.63 µM
Cc1cccc(-n2ncc3ccc(NC(=O)[C@H]4C[C@@H](N)C4)cc32)c1 [Compound 16, (cis)-3-amino-N-(1-(m-tolyl)-1H-indazol-6-yl)cyclobutanecarboxamide hydrochloride]	0.6 µM
Cc1cccc(-n2ncc3ccc(NC(=O)[C@@H](N)[C@H](C)O)cc32)c1 [Compound 17, (2S,3S)-2-amino-3-hydroxy-N-(1-(m-tolyl)-1H-indazol-6-yl)butanamide hydrochloride]	7 µM
